Results on 62 molecules are retold here after patent US20260001871A1, “TRIAZOLE DERIVATIVES AS MODULATORS OF MAS-RELATED G-PROTEIN RECEPTOR D” (ESCIENT PHARMACEUTICALS, INC., priority 2022, published 2026).

The experiment deals with human MRGPRD (Homo sapiens, UniProt Q8TDS7). Briefly: MRGPRD antagonist activity, IP-One HTRF assay in CHO cells stably expressing human MRGPRD (versus 100 μM β-Alanine agonist). Type of experiment: cell-based. How it is done: Chinese Hamster Ovary (CHO) cells stably expressing human MRGPRD (Eurofins, San Diego CA) were plated in a 384-well plate at 20,000 cells per well in 12 μL of Optimem (Fisher Scientific 11-058-021). Plates were kept in the incubator at 37° C. overnight. Antagonists were solubilized at a concentration of 10 mM in DMSO, and the agonists were solubilized to stock concentrations of either 50 mM in H2O (β-Alanine) or 10 mM in DMSO (all others) and then diluted in assay buffer (final concentrations of 5.7 mM Tris-HCl, 43 mM NaCl, 50 mM LiCl, pH=8). The concentration of DMSO was normalized across the plate. Antagonists were added to the plate using a Tecan D300 Digital Dispenser at nanoliter/picoliter volumes and 2 μL of agonists in assay buffer were added to each well for a final assay volume of 14 μL. Plates were covered and incubated for 1 h at 37° C. and then for 1 h at room temperature. IP-1 standards and HTRF detection reagents were added according to an IP-One—Gq Kit purchased from Cisbio (part number 621PAPEJ) and incubated in the dark for 1 h at room temperature. Assay plates were read on either a Molecular Devices SpectraMax iD5 plate reader or a BMG ClarioStar plate reader. The HTRF ratio was calculated form the raw data and graphed using GraphPad Prism to calculate IC50 values. Data are expressed as average IC50 values and average percent antagonism calculated as a percent of the maximum efficacy response. For these studies, the variability of the data was assessed by determining the standard error of mean (SEM).
Chain of human MRGPRD (Q8TDS7 whole entry): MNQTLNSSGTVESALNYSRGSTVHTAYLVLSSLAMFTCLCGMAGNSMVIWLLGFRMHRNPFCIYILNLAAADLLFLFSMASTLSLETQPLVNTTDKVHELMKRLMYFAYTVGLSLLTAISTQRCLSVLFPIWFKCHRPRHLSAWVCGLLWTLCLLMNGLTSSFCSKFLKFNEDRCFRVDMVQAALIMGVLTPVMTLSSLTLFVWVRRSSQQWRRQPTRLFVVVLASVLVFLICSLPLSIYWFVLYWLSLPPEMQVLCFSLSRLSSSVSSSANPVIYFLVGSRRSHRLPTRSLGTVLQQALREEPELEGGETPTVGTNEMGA
The activity ranges are denoted as follows: “+++++” denotes antagonist activity<100 nM; “++++” denotes antagonist activity between 100 and 500 nM; “+++” denotes activity between 500 and 1000 nM; “++” denotes activity between 1000 and 3000 nM; and “+” denotes activity>3000 nM.
(TR-FRET usually uses a lanthanide donor and a delayed reading to cut background.)
`Cc1ccc(-n2nnc(C(=O)Nc3ccnc(C)c3)c2C2CC2)cc1` [Compound 1-4, 5-cyclopropyl-N-(2-methylpyridin-4-yl)-1-(p-tolyl)-1H-1,2,3-triazole-4-carboxamide] registered an IC50 of 0.1 to 0.5 µM.

In turn, `Cc1ccc(-n2nnc(C(=O)Nc3cc(F)nc(F)c3)c2C2CC2)cc1` [Compound 1-5] registered a 50% inhibitory concentration (IC50) of 0.5 to 1 µM.

`Cc1ccc(-n2nnc(C(=O)Nc3cc(C)nc(C)c3)c2C2CC2)cc1` [Compound 1-6] had an IC50 of 0.5 to 1 µM.

The molecule `Cc1ccc(-n2nnc(C(=O)Nc3ccnc(F)c3)c2C2CC2)cc1` [Compound 1-7] displayed a half-inhibitory concentration (IC50) of 0.5 to 1 µM.

`Cc1ccc(-n2nnc(C(=O)Nc3ccncc3F)c2C2CC2)cc1` [Compound 1-9] registered an IC50 of 1 to 3 µM.

As to `Cc1ccc(-n2nnc(C(=O)Nc3ccncc3)c2C(C)C)cc1` [Compound 1-19], the IC50 is 0.5 to 1 µM.

Turning to `N#Cc1ccc(-n2nnc(C(=O)Nc3ccncc3)c2C2CC2)cc1` [Compound 2-1], the IC50 is > 3 µM.

`Cc1ccc(-n2nnc(C(=O)Nc3ccncc3)c2C2CC2)c(F)c1` [Compound 2-2] showed an IC50 of 0.5 to 1 µM.

`O=C(Nc1ccncc1)c1nnn(-c2ccc(-c3ccccc3)cc2)c1C1CC1` [Compound 2-3] returned an IC50 of 0.5 to 1 µM.

`COc1ccc(-n2nnc(C(=O)Nc3ccncc3)c2C2CC2)cc1` [Compound 2-4, 5-cyclopropyl-1-(4-methoxyphenyl)-N-(pyridin-4-yl)-1H-1,2,3-triazole-4-carboxamide] registered an IC50 of 0.5 to 1 µM.

For the molecule `Cc1ccc(-n2nnc(C(=O)Nc3ccncc3)c2C2CC2)cc1C` [Compound 2-5], the IC50 fell in the range of 1 to 3 µM.

Regarding `COc1cc(-n2nnc(C(=O)Nc3ccncc3)c2C2CC2)ccc1C` [Compound 2-6], the IC50 fell in the range of 1 to 3 µM.

`Cc1ccc(-n2nnc(C(=O)Nc3ccncc3)c2C2CC2)c(Cl)c1` [Compound 2-7]: the IC50 was in the range of 1 to 3 µM.

In turn, `Cc1ccc(-n2nnc(C(=O)Nc3ccncc3)c2C2CC2)c(C)c1` [Compound 2-8] displayed an IC50 of 1 to 3 µM.

Molecule `CC(=O)c1cccc(-n2nnc(C(=O)Nc3ccncc3)c2C2CC2)c1` [Compound 2-9] had a half-maximal inhibitory concentration (IC50) of 1 to 3 µM.

As to `CC(=O)c1ccc(-n2nnc(C(=O)Nc3ccncc3)c2C2CC2)cc1` [Compound 2-10], the IC50 was 1 to 3 µM.

As for `O=C(Nc1ccncc1)c1nnn(-c2ccc(C3CCCC3)cc2)c1C1CC1` [Compound 2-11], the IC50 is 1 to 3 µM.

Turning to `Cc1ccc(-n2nnc(C(=O)Nc3ccncc3)c2C2CC2)cc1F` [Compound 2-13], the IC50 was > 3 µM.

`Cc1cccc(-n2nnc(C(=O)Nc3ccncc3)c2C2CC2)c1` [Compound 2-14]: the IC50 was > 3 µM.

Consider `CCc1cccc(-n2nnc(C(=O)Nc3ccncc3)c2C2CC2)c1` [Compound 3-1, 5-cyclopropyl-1-(3-ethylphenyl)-N-(pyridin-4-yl)-1H-1,2,3-triazole-4-carboxamide], for which the IC50 was in the range of 0.5 to 1 µM.

For the molecule `CCc1ccc(-n2nnc(C(=O)Nc3ccncc3)c2C2CC2)cc1` [Compound 3-2], the concentration for half-maximal inhibition (IC50) lay within 1 to 3 µM.

Take `CCc1ccccc1-n1nnc(C(=O)Nc2ccncc2)c1C1CC1` [Compound 3-3]: the concentration for half-maximal inhibition (IC50) was in the range of 1 to 3 µM.

Take `COc1cccc(-n2nnc(C(=O)Nc3ccncc3)c2C2CC2)c1` [Compound 3-4]: the half-maximal inhibitory concentration (IC50) is 1 to 3 µM.

Regarding `Cc1ccc(-n2nnc(C(=O)Nc3ccncc3)c2C2CCC2)cc1` [Compound 3-5], the IC50 was in the range of 0.5 to 1 µM.

Regarding `Cc1ccc(-n2nnc(C(=O)Nc3ccncc3)c2C2CCCC2)cc1` [Compound 3-6], the IC50 is 1 to 3 µM.

Consider `O=C(Nc1ccncc1)c1nnn(-c2cc3ccccc3o2)c1C1CC1` [Compound 4-1], for which the IC50 was > 3 µM.

In turn, `Cc1ccc(-n2nnc(C(=O)Nc3ccnc(C)c3)c2C2CC2)c(Cl)c1` [Compound 4-2, 1-(2-chloro-4-methylphenyl)-5-cyclopropyl-N-(2-methylpyridin-4-yl)-1H-1,2,3-triazole-4-carboxamide] yielded an IC50 of 0.1 to 0.5 µM.

For the molecule `O=C(Nc1ccncc1)c1nnn(-c2ccccc2C(F)(F)F)c1C1CC1` [Compound 4-3], the IC50 was in the range of 1 to 3 µM.

`Cc1ccc(-n2nnc(C(=O)Nc3ccncc3)c2C2CC2)cc1O` [Compound 4-4] registered an IC50 of 1 to 3 µM.

`O=C(Nc1ccncc1)c1nnn(-c2ccc(O)cc2)c1C1CC1` [Compound 4-5] showed an IC50 of 1 to 3 µM.

Consider `Cc1ccc(-n2nnc(C(=O)Nc3ccncc3)c2C2CC2)c(C(F)(F)F)c1` [Compound 4-6], for which the IC50 was 1 to 3 µM.

With `O=C(Nc1ccncc1)c1nnn(-c2cccc(O)c2)c1C1CC1` [Compound 4-7], the IC50 lay within 1 to 3 µM.

Take `O=C(Nc1ccncc1)c1nnn(-c2cc3ccccc3s2)c1C1CC1` [Compound 4-8]: the IC50 lay in the range of 1 to 3 µM.

The molecule `O=C(Nc1ccncc1)c1nnn(C2CCc3ccccc3C2)c1C1CC1` (centres unmarked) [Compound 4-9] had a concentration for half-maximal inhibition (IC50) of 1 to 3 µM.

Regarding `O=C(Nc1ccncc1)c1nnn(-c2csc3ccccc23)c1C1CC1` [Compound 4-10], the IC50 is 1 to 3 µM.

On to `O=C(Nc1ccncc1)c1nnn(-c2cccc(-c3ccccc3)c2)c1C1CC1` [Compound 4-11], for which the IC50 was 1 to 3 µM.

`CC(C)(C)c1c(C(=O)Nc2ccncc2)nnn1-c1ccc(-c2ccccc2)cc1` [Compound 4-12]: the IC50 was in the range of 1 to 3 µM.

The molecule `O=C(Nc1ccncc1)c1nnn(-c2ccc(-c3ccccc3)cc2Cl)c1C1CC1` [Compound 4-13] returned an IC50 of 0.5 to 1 µM.

Turning to `O=C(Nc1ccncc1)c1nnn(-c2ccc3c(c2)CCC3)c1C1CC1` [Compound 5-1], the IC50 is > 3 µM.

Turning to `O=C(Nc1ccncc1)c1nnn(-c2ncc(-c3ccccc3)s2)c1C1CC1` [Compound 5-2], the IC50 was > 3 µM.

In the case of `O=C(Nc1ccncc1)c1nnn(-c2ccc3ccccc3c2)c1C1CC1` [Compound 5-3], the IC50 lay within 0.5 to 1 µM.

For the molecule `CCc1cc(-n2nnc(C(=O)Nc3ccncc3)c2C2CC2)ccc1C` [Compound 5-4, 5-cyclopropyl-1-(3-ethyl-4-methylphenyl)-N-(pyridin-4-yl)-1H-1,2,3-triazole-4-carboxamide], the IC50 lay within 0.5 to 1 µM.

As for `COc1cc(C)ccc1-n1nnc(C(=O)Nc2ccncc2)c1C1CC1` [Compound 5-5], the IC50 lay in the range of 0.5 to 1 µM.

In turn, `CCc1cc(C)ccc1-n1nnc(C(=O)Nc2ccncc2)c1C1CC1` [Compound 5-6] came in with a concentration for half-maximal inhibition (IC50) of 1 to 3 µM.

`Cc1ccc(-n2nnc(C(=O)Nc3ccncc3)c2C2CC2)cc1-c1ccccc1` [Compound 5-7] came in with an IC50 of 1 to 3 µM.

Regarding `O=C(Nc1ccncc1)c1nnn(C2CCCCC2)c1C1CC1` [Compound 6-1], the IC50 was in the range of 1 to 3 µM.

Molecule `O=C(Nc1ccncc1)c1nnn(-c2cccc3ccccc23)c1C1CC1` [Compound 6-2, 5-cyclopropyl-1-(naphthalen-1-yl)-N-(pyridin-4-yl)-1H-1,2,3-triazole-4-carboxamide] registered a concentration for half-maximal inhibition (IC50) of 0.1 to 0.5 µM.

For `O=C(Nc1ccncc1)c1nnn(CC(F)(F)F)c1C1CC1` [Compound 6-3], the IC50 fell in the range of 0.5 to 1 µM.

In turn, `COCCn1nnc(C(=O)Nc2ccncc2)c1C1CC1` [Compound 6-4] gave an IC50 of 1 to 3 µM.

In turn, `O=C(Nc1ccncc1)c1nnn(C2CCCC2)c1C1CC1` [Compound 6-5] returned a half-inhibitory concentration (IC50) of 1 to 3 µM.

With `Cc1nnc(-c2ccc(-n3nnc(C(=O)Nc4ccncc4)c3C3CC3)cc2)o1` [Compound 7-1], the IC50 was > 3 µM.

`CN(C)C(=O)c1ccccc1-c1ccc(-n2nnc(C(=O)Nc3ccncc3)c2C2CC2)cc1` [Compound 7-2]: the half-inhibitory concentration (IC50) is > 3 µM.

Turning to `O=C(Nc1ccncc1)c1nnn(-c2ccc(-c3ncc[nH]3)cc2)c1C1CC1` [Compound 7-3], the IC50 is > 3 µM.

Take `N#CCc1ccc(-n2nnc(C(=O)Nc3ccncc3)c2C2CC2)cc1` [Compound 7-4]: the concentration for half-maximal inhibition (IC50) was > 3 µM.

Turning to `Nc1cc(-c2ccc(-n3nnc(C(=O)Nc4ccncc4)c3C3CC3)cc2)n[nH]1` [Compound 7-5], the IC50 is > 3 µM.

On to `Cc1ccc(CNC(=O)c2nnn(-c3cccc(-c4ccc(C#N)cc4)c3)c2C2CC2)cn1` [Compound 7-7], for which the IC50 was > 3 µM.

As for `CC(=O)c1ccccc1-c1cccc(-n2nnc(C(=O)Nc3ccncc3)c2C2CC2)c1` [Compound 7-8], the IC50 was > 3 µM.

With `N#Cc1ccc(-c2cccc(-n3nnc(C(=O)NC4(c5cccnc5)CC4)c3C3CC3)c2)cc1` [Compound 7-9], the IC50 was > 3 µM.

As for `O=C(NC1(c2cccnc2)CC1)c1nnn(-c2cccc(-c3cnn(C4CCC4)c3)c2)c1C1CC1` [Compound 7-10], the IC50 was > 3 µM.

With `Cc1nn(-c2ccccc2)c(C)c1-c1ccc(-n2nnc(C(=O)Nc3ccncc3)c2C2CC2)cc1` [Compound 7-11], the IC50 was < 0.1 µM.

As for `Cc1cc(NC(=O)c2nnn(-c3ccc(-c4c(C)nn(C)c4C)cc3)c2C2CC2)ccn1` [Compound 7-12, 5-cyclopropyl-N-(2-methylpyridin-4-yl)-1-(4-(1,3,5-trimethyl-1H-pyrazol-4-yl)phenyl)-1H-1,2,3-triazole-4-carboxamide], the IC50 is < 0.1 µM.

As for `Cc1cc(NC(=O)c2nnn(-c3ccc(-c4c(C)nn(C)c4F)cc3)c2C2CC2)ccn1` [Compound 7-13], the IC50 is < 0.1 µM.

As a reminder, the IC50 is the concentration at which inhibition is half-maximal. A lower IC50 goes with higher potency.
